PMC5175396, “Cytotoxicity of Plumbagin, Rapanone and 12 other naturally occurring Quinones from Kenyan Flora towards human carcinoma cells” (BMC Pharmacology & Toxicology, 2016)

Legend:
[1] = test system: A549 human non-small cell lung cancer (NSCLC) cell line; assay: Neutral red (NR) uptake cytotoxicity assay, A549; assay type: cell-based; conditions: for IC50: Homo sapiens, A549, 72 h, neutral red assay, 72 h incubation; for selectivity index A549: IC50 in CRL2120 normal fibroblasts divided by IC50 in A549
From the text: (§1) Six human cancer cell lines and one normal cell line were used in this study. They included A549 human non-small cell lung cancer (NSCLC) cell line, obtained from the Institute for Fermentation, Osaka (IFO, Japan) and provided by Prof. Dr. Tansu Koparal (Anadolu University, Eskisehir, Turkey), SPC212 human mesothelioma cell line obtained from American Type Culture Collection (ATCC) and provided by Dr. Asuman Demiroğlu Zergeroğlu (Gebze Technical University, Kocaeli, Turkey), DLD-1 colorectal adenocarcinoma cell lines obtained from ATCC (CCL-221), Caco2 colorectal adenocarcinoma cells (ATCC, HTB-37) obtained from the ŞAP Institute of Turkey (Ankara), HepG2 hepatocarcinoma cells (ATCC, HB-8065) and MCF-7 breast adenocarcinoma cells (ATCC, HTB-22) were provided by Prof. Dr. Tansu Koparal (Anadolu University, Eskisehir, Turkey). The normal CRL2120 human skin fibroblasts were obtained from ATCC [CCD1094Sk (ATCC, CRL-2120)]. The cells were maintained as a monolayer in DMEM medium (Sigma-aldrich, Munich, Germany) medium supplemented with 10% fetal calf serum and 1% penicillin (100 U/mL)-streptomycin (100 μg/mL) in a humidified 5% CO2 atmosphere at 37 °C.
(§2) The cytotoxicity of samples was performed by NR uptake assay as previously described. This method is based on the ability of viable cells to incorporate and bind the supravital dye NR in the lysosomes. […] Briefly, cells were detached by treatment with 0.25% trypsin/EDTA (Invitrogen) and an aliquot of 1 × 10^4 cells was placed in each well of a 96-well cell culture plate (Thermo Scientific, Germany) in a total volume of 200 μL. The cells were allowed to attach overnight and subsequently treated with different concentrations of the 14 compounds. Each of the studied samples was immediately added in varying concentrations in additional 100 μL of culture medium to obtain a total volume of 200 μL/well. After 72 h incubation in humidified 5% CO2 atmosphere at 37 °C, the medium was removed and 200 μL fresh medium containing 50 μg/mL NR was added to each well and incubation continued for an additional 3 h at 37 °C in 5% CO2 atmosphere. The dye medium was then removed and each well was then washed rapidly with 200 μL phosphate buffer saline (PBS) followed by addition of 200 μL of acetic acid-water-ethanol in water (1:49:50). The plates were kept for 15 min at room temperature to extract the dye and then shaken for a few minutes on a GFL 3012 shaker (Gesellschaft für Labortechnik mbH, Burgwedel, Germany). Absorbance was measured on ELx 808 Ultra Microplate Reader (Biotek) equipped with a 540 nm filter. Each assay was done at least three times, with three replicates each. The viability was evaluated based on a comparison with untreated cells. The IC50 values represent the sample’s concentrations required to inhibit 50% of cell proliferation and were calculated from a calibration curve by linear regression using Microsoft Excel.

[2] = test system: Caco2 colorectal adenocarcinoma cells; assay: Neutral red (NR) uptake cytotoxicity assay, Caco-2; assay type: cell-based, human; conditions: Homo sapiens, Caco-2; neutral red assay, 72 h incubation
From the text: as §1
as §2, with “lysosomes. The procedure is cheaper and more sensitive than other cytotoxicity tests.” for “lysosomes.”

[3] = Neutral red (NR) uptake cytotoxicity assay, Caco-2; assay type: cell-based, human; conditions: human; IC50 in CRL2120 normal fibroblasts divided by IC50 in Caco-2; read-out: selectivity index Caco-2 (converted)
From the text: as §1
as §2, with “lysosomes. The procedure is cheaper and more sensitive than other cytotoxicity tests.” for “lysosomes.”

[4] = test system: DLD-1 colorectal adenocarcinoma cell lines; assay: Neutral red (NR) uptake cytotoxicity assay, DLD-1; assay type: cell-based, human; conditions: for IC50: Homo sapiens, DLD-1, neutral red assay, 72 h incubation, read-out: IC50 DLD-1
From the text: as §1
as §2, with “lysosomes. The procedure is cheaper and more sensitive than other cytotoxicity tests.” for “lysosomes.”

[5] = test system: MCF-7 cells; assay: Mitochondrial membrane potential (MMP) analysis, JC-1 staining, flow cytometry; assay type: cell-based, human; conditions: IC50 (C3), 72 h, control 4.3%
Protocol: The MMP was analyzed in MCF-7 cells by 5,5′,6,6′-tetrachloro-1,1′,3,3′-tetraethylbenzimidazolylcarbocyanine iodide) (JC-1; Biomol, Hamburg, Germany) staining as previously reported. […] Subsequently, cells were measured in a BD FACS Aria I Cell Sorter Flow Cytometer (Becton-Dickinson, Germany). The JC-1 signal was measured at an excitation of 561 nm (150 mW) and detected using a 586/15 nm band-pass filter. The signal was analyzed at 640 nm excitation (40 mW) and detected using a 730/45 nm bandpass filter. Cytographs were analyzed using BD FACSDiva™ Flow Cytometry Software Version 6.1.2 (Becton-Dickinson). All experiments were performed at least in triplicate.

[6] = test system: HepG2 hepatocarcinoma cells; assay: Neutral red (NR) uptake cytotoxicity assay, HepG2; assay type: cell-based, human; conditions: for IC50: Homo sapiens, HepG2, neutral red assay, 72 h incubation, read-out: IC50 HepG2; for selectivity index HepG2: IC50 in CRL2120 normal fibroblasts divided by IC50 in HepG2
From the text: as §1
as §2, with “lysosomes. The procedure is cheaper and more sensitive than other cytotoxicity tests.” for “lysosomes.”

[7] = test system: normal CRL2120 human skin fibroblasts; assay: Neutral red (NR) uptake cytotoxicity assay, normal CRL2120 fibroblasts; assay type: cell-based; conditions: Skin fibroblast, 72 h incubation
From the text: as §1
as §2, with “lysosomes. The procedure is cheaper and more sensitive than other cytotoxicity tests.” for “lysosomes.”

| SMILES | IC50 [1] | selectivity index A549 [1] | IC50 [2] | selectivity ratio at 72 h [3] | IC50 [4] | selectivity index DLD-1 ([4]; IC50 in CRL2120 normal fibroblasts divided by IC50 in DLD-1) | MMP, gate P2 (loss / depletion of MMP) [5] | IC50 [6] | selectivity index HepG2 [6] | IC50 [7] |
| --- | --- | --- | --- | --- | --- | --- | --- | --- | --- | --- |
| CCCCCCCCCCCCCC1=C(O)C(=O)C=C(O)C1=O [Compound 9, 2,5-dihydroxy-3-tridecyl-2,5-cyclohexadiene-1,4-dione] | 27.4 ± 1.46 µM | 3.48 | 22.95 ± 0.13 µM | 4.15 | 46.6 ± 5.38 µM | 2.04 | 88.1% | 32.7 ± 0.61 µM | 2.91 | 95.2 ± 6.65 µM |
| CC1=CC(=O)c2c(O)cccc2C1=O [Compound 4, 5-hydroxy-2-methyl-1,4-naphthalenedione] | 1.14 ± 0.02 µM | 59.35 | 0.07 ± 0.01 µM | 967 | 0.98 ± 0.11 µM |  | 12.2% | 1.01 ± 0.08 µM | 66.99 | 67.7 ± 6.49 µM |
